Measured values published in ChEMBL document CHEMBL1201862, “PubChem BioAssay data set” (2004).
Activity calls are given as the source filed them.

Key:
Assay type in all cases: functional
[1] = target: 5'-AMP-activated protein kinase catalytic subunit alpha-1 (Homo sapiens, UniProt Q13131)
[2] = target: Macrophage-stimulating protein receptor (Homo sapiens, UniProt Q04912); test: Navigating the Kinome. Panel member name: MST1R
[3] = target: Vascular endothelial growth factor receptor 1 (Homo sapiens, UniProt P17948);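 also: measured within a kinome-wide profiling panel, FLT1 as the panel member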
[4] = target: Dual specificity mitogen-activated protein kinase kinase 1 (Homo sapiens, UniProt Q02750); test: Navigating the Kinome. Panel member name: MAP2K1
[5] = target: Serine/threonine-protein kinase TBK1 (Homo sapiens, UniProt Q9UHD2); test: Navigating the Kinome. Panel member name: TBK1
Serine/threonine-protein kinase TBK1, sequence (Q9UHD2 whole entry): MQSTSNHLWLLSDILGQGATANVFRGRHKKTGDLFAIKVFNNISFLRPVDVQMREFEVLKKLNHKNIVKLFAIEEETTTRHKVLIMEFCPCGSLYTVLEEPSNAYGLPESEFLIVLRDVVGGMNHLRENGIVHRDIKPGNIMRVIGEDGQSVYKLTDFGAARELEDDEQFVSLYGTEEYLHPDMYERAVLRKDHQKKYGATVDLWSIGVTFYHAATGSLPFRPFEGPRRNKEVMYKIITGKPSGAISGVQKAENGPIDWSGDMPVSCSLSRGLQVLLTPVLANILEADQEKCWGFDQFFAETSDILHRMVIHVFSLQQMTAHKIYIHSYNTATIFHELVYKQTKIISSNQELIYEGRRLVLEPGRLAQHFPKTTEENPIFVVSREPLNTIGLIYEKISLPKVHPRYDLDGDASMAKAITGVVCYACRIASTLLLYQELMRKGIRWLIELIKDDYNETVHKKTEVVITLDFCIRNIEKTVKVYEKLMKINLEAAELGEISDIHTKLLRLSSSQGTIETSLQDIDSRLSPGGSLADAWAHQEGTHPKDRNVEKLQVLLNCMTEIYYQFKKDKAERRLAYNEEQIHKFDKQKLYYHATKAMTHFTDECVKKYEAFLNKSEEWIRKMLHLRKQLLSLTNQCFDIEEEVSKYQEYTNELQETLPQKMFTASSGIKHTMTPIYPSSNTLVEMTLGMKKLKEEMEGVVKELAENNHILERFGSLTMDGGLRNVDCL

[6] = target: Fibroblast growth factor receptor 1 (Homo sapiens, UniProt P11362)
[7] = target: Cyclin-dependent kinase 9 (Homo sapiens, UniProt P50750);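 also: value from the CDK9 entry of a kinome-spanning kinase panel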
Cyclin-dependent kinase 9, sequence (P50750 whole entry, the tested form may be a part): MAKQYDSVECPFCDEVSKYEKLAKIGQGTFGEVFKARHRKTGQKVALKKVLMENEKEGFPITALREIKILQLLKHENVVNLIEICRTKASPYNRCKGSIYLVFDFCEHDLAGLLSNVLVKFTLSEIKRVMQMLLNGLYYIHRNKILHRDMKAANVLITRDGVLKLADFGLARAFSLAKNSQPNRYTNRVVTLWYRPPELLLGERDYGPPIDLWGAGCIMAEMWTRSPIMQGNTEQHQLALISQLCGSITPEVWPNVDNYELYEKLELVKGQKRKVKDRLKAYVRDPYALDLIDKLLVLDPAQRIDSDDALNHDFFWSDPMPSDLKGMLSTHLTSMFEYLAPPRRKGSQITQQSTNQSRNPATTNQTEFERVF

[8] = target: LIM domain kinase 1 (Homo sapiens, UniProt P53667); test: Navigating the Kinome. Panel member name: LIMK1
[9] = target: Cyclin-dependent kinase 5 (Homo sapiens, UniProt Q00535);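 also: CDK5 measured as one member of a kinase profiling panel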
[10] = target: Serine/threonine-protein kinase pim-1 (Homo sapiens, UniProt P11309)
Serine/threonine-protein kinase pim-1, sequence (P11309 whole entry): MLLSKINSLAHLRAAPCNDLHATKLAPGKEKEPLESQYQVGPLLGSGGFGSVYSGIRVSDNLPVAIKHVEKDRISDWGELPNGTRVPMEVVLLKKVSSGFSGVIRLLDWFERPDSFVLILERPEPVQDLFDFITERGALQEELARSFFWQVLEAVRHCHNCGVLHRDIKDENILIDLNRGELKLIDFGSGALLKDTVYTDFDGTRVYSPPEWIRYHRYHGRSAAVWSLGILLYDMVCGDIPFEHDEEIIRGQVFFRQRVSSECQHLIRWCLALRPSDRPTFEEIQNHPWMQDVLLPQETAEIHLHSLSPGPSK

[11] = target: Death-associated protein kinase 3 (Homo sapiens, UniProt O43293);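 also: measured as one member of a kinome-wide profiling panel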
[12] = target: Vascular endothelial growth factor receptor 2 (Homo sapiens, UniProt P35968)
[13] = target: Macrophage colony-stimulating factor 1 receptor (Homo sapiens, UniProt P07333);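 also: value comes from the Navigating the Kinome screening panel, CSF1R member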
[14] = target: Serine/threonine-protein kinase PAK 4 (Homo sapiens, UniProt O96013);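 also: value obtained within a kinome profiling panel in which PAK4 was one of the panel members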
[15] = target: Protein kinase C theta type (Homo sapiens, UniProt Q04759); test: Navigating the Kinome. Panel member name: PRKCQ
Protein kinase C theta type, sequence (Q04759 whole entry): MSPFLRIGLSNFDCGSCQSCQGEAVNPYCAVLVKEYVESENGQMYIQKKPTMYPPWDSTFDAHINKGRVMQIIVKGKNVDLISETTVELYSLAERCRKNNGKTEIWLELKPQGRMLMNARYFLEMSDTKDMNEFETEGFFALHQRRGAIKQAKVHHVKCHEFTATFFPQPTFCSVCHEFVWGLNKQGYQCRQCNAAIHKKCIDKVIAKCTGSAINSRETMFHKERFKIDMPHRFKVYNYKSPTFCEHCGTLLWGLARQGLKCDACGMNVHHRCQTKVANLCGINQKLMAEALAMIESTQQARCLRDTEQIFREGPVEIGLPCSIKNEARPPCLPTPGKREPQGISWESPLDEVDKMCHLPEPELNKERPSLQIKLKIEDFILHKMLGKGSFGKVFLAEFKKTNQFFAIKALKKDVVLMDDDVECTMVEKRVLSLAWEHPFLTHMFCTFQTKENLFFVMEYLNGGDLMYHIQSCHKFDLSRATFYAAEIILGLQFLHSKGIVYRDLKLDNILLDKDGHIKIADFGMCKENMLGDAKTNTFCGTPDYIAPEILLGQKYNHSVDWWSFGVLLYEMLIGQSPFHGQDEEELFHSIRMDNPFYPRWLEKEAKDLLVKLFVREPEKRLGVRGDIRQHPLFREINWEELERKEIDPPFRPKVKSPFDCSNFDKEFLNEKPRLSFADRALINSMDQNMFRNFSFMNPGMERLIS

[16] = target: T1, Serine/threonine-protein kinase Chk1 (Homo sapiens, UniProt O14757);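 also: measured as one member of a kinome-wide kinase profiling panel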
T1 sequence (O14757 whole entry): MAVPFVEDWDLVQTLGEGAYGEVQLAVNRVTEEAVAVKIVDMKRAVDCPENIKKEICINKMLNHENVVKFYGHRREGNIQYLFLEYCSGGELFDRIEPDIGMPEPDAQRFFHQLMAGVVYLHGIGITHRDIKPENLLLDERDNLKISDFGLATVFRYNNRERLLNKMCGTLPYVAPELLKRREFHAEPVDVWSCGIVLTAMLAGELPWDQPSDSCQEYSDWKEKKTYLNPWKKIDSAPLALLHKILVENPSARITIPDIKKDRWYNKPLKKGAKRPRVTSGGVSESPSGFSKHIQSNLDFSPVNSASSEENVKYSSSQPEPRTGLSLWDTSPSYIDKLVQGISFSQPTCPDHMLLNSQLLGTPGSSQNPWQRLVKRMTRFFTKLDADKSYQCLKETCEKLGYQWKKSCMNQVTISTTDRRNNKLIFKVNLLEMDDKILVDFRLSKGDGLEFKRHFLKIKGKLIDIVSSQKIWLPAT

[17] = target: Cyclin-dependent kinase 8 (Homo sapiens, UniProt P49336); test: Navigating the Kinome. Panel member name: CDK8
[18] = target: Activated CDC42 kinase 1 (Homo sapiens, UniProt Q07912); test: Navigating the Kinome. Panel member name: ACK1
Activated CDC42 kinase 1, sequence (Q07912 whole entry): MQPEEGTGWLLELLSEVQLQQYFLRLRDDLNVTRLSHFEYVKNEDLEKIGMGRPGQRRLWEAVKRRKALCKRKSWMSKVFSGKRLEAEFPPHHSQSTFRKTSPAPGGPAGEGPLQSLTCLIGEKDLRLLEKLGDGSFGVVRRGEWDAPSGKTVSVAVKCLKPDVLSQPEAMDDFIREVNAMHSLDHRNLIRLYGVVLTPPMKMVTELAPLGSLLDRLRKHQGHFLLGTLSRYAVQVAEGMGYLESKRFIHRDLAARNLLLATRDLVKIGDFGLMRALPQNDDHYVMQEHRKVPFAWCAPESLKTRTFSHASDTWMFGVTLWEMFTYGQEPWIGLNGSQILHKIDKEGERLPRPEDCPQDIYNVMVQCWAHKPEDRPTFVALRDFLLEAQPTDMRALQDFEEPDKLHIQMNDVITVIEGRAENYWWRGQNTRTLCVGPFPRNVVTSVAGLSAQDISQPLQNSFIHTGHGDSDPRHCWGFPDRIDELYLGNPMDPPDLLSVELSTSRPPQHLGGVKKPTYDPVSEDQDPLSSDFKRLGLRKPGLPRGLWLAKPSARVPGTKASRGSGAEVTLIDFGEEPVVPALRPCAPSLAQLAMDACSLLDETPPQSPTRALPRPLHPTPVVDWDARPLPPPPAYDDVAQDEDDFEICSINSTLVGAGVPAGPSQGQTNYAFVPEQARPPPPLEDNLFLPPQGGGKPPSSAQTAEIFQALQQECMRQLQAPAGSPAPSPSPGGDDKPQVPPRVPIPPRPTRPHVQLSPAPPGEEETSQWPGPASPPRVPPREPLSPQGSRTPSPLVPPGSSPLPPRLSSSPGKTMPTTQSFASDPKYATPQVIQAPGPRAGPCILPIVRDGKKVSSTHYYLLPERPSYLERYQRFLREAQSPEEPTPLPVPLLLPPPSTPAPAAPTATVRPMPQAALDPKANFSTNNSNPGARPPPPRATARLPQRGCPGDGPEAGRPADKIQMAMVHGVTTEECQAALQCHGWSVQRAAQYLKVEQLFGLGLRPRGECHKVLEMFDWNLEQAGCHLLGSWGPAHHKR

[19] = target: T2, Aurora kinase A (Homo sapiens, UniProt O14965);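 also: value from the Navigating the Kinome kinase panel profiling, panel entry STK6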
T2 sequence (O14965 whole entry): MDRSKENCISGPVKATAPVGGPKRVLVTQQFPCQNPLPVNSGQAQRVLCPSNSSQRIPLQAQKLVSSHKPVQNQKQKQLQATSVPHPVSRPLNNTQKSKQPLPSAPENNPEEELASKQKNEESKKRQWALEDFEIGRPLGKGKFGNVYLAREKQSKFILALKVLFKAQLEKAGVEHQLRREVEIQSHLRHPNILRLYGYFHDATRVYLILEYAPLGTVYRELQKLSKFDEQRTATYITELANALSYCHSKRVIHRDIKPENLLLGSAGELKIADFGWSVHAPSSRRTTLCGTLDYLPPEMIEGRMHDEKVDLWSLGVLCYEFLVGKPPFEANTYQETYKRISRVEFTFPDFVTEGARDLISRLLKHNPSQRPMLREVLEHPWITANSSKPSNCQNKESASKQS

[20] = target: Dual specificity tyrosine-phosphorylation-regulated kinase 1A (Homo sapiens, UniProt Q13627);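 also: measured against DYRK1A as one member of a broad kinome profiling panel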
[21] = target: Focal adhesion kinase 1 (Homo sapiens, UniProt Q05397);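 also: measured as one member of a kinome panel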
[22] = target: ALK tyrosine kinase receptor (Homo sapiens, UniProt Q9UM73);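 also: ALK tested as one member of a kinase panel screen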
[23] = target: Leucine-rich repeat serine/threonine-protein kinase 2 (Homo sapiens, UniProt Q5S007);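 also: value from a broad kinome-wide panel profiling study in which LRRK2 was one of the kinases tested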
[24] = target: Rho-associated protein kinase 1 (Homo sapiens, UniProt Q13464);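 also: measured within a broad kinome-wide panel profiling many kinases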
[25] = target: Tyrosine-protein kinase receptor TYRO3 (Homo sapiens, UniProt Q06418);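 also: TYRO3 value obtained as one member of a kinome-wide profiling panel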
[26] = target: Leukocyte tyrosine kinase receptor (Homo sapiens, UniProt P29376); test: Navigating the Kinome. Panel member name: LTK
[27] = target: Platelet-derived growth factor receptor beta (Homo sapiens, UniProt P09619);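 also: value comes from a kinome panel, with PDGFRB tested as one panel member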
[28] = target: Glycogen synthase kinase-3 alpha (Homo sapiens, UniProt P49840);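 also: GSK3A result taken from a broad kinome-wide kinase panel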
[29] = target: Ribosomal protein S6 kinase alpha-3 (Homo sapiens, UniProt P51812);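 also: measured within a kinome-wide profiling panel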
Ribosomal protein S6 kinase alpha-3, sequence (P51812 whole entry): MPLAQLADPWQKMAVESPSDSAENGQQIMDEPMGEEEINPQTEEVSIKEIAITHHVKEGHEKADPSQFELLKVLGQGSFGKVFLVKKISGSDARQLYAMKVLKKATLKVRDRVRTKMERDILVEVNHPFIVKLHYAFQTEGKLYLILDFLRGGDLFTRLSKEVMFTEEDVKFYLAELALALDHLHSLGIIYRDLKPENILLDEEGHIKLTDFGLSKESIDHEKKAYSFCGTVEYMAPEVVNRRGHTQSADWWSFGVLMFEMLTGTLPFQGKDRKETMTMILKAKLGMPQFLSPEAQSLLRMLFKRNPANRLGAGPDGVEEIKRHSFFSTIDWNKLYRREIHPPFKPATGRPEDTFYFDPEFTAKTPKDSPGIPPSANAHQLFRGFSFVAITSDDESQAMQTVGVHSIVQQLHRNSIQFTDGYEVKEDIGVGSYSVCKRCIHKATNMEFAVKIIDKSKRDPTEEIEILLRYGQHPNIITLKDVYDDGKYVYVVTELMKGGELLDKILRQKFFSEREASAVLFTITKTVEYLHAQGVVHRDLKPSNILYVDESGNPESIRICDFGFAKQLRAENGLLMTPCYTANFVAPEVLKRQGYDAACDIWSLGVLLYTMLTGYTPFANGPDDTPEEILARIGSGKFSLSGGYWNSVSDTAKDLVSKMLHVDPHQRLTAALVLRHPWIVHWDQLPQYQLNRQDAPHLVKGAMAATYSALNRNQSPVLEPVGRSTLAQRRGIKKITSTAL

[30] = target: Serine/threonine-protein kinase Nek2 (Homo sapiens, UniProt P51955)
Serine/threonine-protein kinase Nek2, sequence (P51955 whole entry): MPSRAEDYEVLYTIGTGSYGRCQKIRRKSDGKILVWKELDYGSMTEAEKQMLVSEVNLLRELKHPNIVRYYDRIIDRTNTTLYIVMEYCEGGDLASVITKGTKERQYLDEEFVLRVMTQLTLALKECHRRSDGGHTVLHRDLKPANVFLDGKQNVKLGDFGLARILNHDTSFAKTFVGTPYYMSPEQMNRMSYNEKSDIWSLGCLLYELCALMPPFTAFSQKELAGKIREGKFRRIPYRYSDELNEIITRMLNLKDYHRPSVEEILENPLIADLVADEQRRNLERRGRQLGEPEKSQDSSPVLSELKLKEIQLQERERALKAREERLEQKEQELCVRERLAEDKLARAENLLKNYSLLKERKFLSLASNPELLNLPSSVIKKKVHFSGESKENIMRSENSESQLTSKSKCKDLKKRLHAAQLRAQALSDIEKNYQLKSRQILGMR

[31] = target: Serine/threonine-protein kinase TAO1 (Homo sapiens, UniProt Q7L7X3)
[32] = target: Mitogen-activated protein kinase kinase kinase kinase 2 (Homo sapiens, UniProt Q12851);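 also: measured as one member of a kinome-wide kinase panel, with MAP4K2 as the panel entry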
[33] = target: Calcium/calmodulin-dependent protein kinase type II subunit alpha (Homo sapiens, UniProt Q9UQM7); test: Navigating the Kinome. Panel member name: CAMK2A
[34] = target: Tyrosine-protein kinase BTK (Homo sapiens, UniProt Q06187)
Tyrosine-protein kinase BTK, sequence (Q06187 whole entry): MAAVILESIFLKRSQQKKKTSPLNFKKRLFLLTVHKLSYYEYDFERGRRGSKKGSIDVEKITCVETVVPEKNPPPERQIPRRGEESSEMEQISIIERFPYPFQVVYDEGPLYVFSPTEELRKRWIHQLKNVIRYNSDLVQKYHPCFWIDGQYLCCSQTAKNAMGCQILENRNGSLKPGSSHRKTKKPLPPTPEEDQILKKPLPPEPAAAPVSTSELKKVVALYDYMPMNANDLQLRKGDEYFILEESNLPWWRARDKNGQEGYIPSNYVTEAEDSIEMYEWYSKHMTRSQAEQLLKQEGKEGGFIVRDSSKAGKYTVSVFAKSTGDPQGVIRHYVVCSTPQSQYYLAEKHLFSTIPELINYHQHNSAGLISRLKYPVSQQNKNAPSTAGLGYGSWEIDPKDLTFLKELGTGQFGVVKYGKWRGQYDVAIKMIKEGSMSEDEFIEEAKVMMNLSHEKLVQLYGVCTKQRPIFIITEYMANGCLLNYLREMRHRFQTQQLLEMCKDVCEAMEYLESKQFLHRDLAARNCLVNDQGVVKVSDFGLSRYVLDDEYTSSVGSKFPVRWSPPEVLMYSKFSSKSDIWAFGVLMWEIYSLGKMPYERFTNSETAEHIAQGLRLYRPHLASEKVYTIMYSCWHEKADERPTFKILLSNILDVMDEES

[35] = target: Tyrosine-protein kinase JAK3 (Homo sapiens, UniProt P52333)

| SMILES | Ki [1] | Ki [2] | Ki [3] | Ki [4] | Ki [5] | Ki [6] | Ki [7] | Ki [8] | Ki [9] | Ki [10] | Ki [11] | Ki [12] | Ki [13] | Ki [14] | Ki [15] | Ki [16] | Ki [17] | Ki [18] | Ki [19] | Ki [20] | further results |
| --- | --- | --- | --- | --- | --- | --- | --- | --- | --- | --- | --- | --- | --- | --- | --- | --- | --- | --- | --- | --- | --- |
| O=c1[nH][nH]c2ccc(Br)cc12 | 12.6 µM (active) | 31.6 µM (active) | 7.94 µM (active) | 25.1 µM (active) | 31.6 µM (active) | 31.6 µM (active) | 5.01 µM (active) | 3.16 µM (active) | 3.16 µM (active) | 15.8 µM (active) | 7.94 µM (active) | 63.1 µM (active) | 39.8 µM (active) | 50.1 µM (active) | 31.6 µM (active) | 2.51 µM (active) | 10 µM (active) | 31.6 µM (active) | 7.94 µM (active) | 1.58 µM (active) | Ki [21]: 31.6 µM (active); Ki [22]: 79.4 µM (active); Ki [23]: 3.98 µM (active); Ki [24]: 15.8 µM (active); Ki [25]: 10 µM (active); Ki [26]: 5.01 µM (active); Ki [27]: 63.1 µM (active); Ki [28]: 39.8 µM (active); Ki [29]: 31.6 µM (active); Ki [30]: 6.31 µM (active); Ki [31]: 79.4 µM (active); Ki [32]: 31.6 µM (active); Ki [33]: 31.6 µM (active); Ki [34]: 31.6 µM (active); Ki [35]: 25.1 µM (active) |
| COc1cc2c(cc1Nc1nc(Nc3cccc(F)c3C(N)=O)c3cc[nH]c3n1)N(C(=O)CN(C)C)CC2 | > 3.16 µM (inactive) | > 3.98 µM (inactive) | > 3.98 µM (inactive) | > 3.16 µM (inactive) | > 3.16 µM (inactive) | > 3.98 µM (inactive) | > 1.58 µM (inactive) | > 3.16 µM (inactive) | > 3.16 µM (inactive) | 3.98 µM (active) | 0.1 µM (active) | > 2.51 µM (inactive) | > 2.51 µM (inactive) | > 5.01 µM (inactive) | > 2.51 µM (inactive) | 2.51 µM (active) | > 3.98 µM (inactive) | 2 µM (active) | > 1.58 µM (inactive) | > 1.58 µM (inactive) | Ki [21]: 0.0398 µM (active); Ki [22]: 0.00126 µM (active); Ki [23]: 0.00794 µM (active); Ki [24]: 2 µM (active); Ki [25]: > 3.16 µM (inactive); Ki [26]: 0.00158 µM (active); Ki [27]: > 2 µM (inactive); Ki [28]: > 3.98 µM (inactive); Ki [29]: 0.631 µM (active); Ki [30]: > 3.16 µM (inactive); Ki [31]: 2 µM (active); Ki [32]: > 2.51 µM (inactive); Ki [33]: > 3.98 µM (inactive); Ki [34]: > 6.31 µM (inactive); Ki [35]: > 5.01 µM (inactive) |
